Reference: PMC12036814 (Angewandte Chemie (International Ed. in English), 2025)

Columns and labels:
HEK‐293 cells = assay: Whole proteome analysis (LC-MS/MS, LFQ) of treated HEK-293 cells; parameters: regulation of ETC complex I and IV subunits: dose or concentration left out as unconfirmed; conditions: […] μM, 3 h to 14 days, versus control
PTGR2 = target: T1, PTGR2 (Homo sapiens, UniProt Q8N8N7); assay: PTGR2 activity assay (LC-MS/MS); format: biochemical; conditions: tested up to 250 μM, data not shown
T1 construct: purchased Antikoerper-online ABIN1098255
T1 sequence (Q8N8N7 whole entry): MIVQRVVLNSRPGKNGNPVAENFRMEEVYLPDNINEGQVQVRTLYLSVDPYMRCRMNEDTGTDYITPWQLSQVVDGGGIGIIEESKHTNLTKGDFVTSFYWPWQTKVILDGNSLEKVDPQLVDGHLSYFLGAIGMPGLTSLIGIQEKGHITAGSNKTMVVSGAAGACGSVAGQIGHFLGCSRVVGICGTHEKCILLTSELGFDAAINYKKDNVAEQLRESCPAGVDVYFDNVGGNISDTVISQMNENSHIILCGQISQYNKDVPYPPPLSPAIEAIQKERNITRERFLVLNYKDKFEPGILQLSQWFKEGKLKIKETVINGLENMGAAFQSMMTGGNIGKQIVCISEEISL
Method: (§1) AIFM1 expression & purification
(§2) Recombinant AIFM1 was expressed in a Rosetta2 E. coli strain. Bacterial growth was conducted in LB media supplemented with riboflavin and FAD shaking at 37°C and 180 rpm. Expression was induced with 1.0 mM IPTG and incubated for further 16 h before harvesting. Cells were harvested on ice in PBS and cell pellets stored at -20°C. Cells were lysed by French press and the 6xHis-tagged constructs were purified by Immobilized Metal Affinity Chromatography using Ni Sepharose (6 Fast Flow, GE). The centrifugation-cleared bacterial lysate was bound to beads in binding buffer (200 mM NaCl, 20 mM Tris/Cl pH = 7.4). […]
(§3) For gel-based fluorescence labelling of recombinant AIFM1, 1.7 µM recombinant protein was spiked - in to PBS or PBS -diluted HEK293 cell lysate ( 100 µg per reaction sample). […]
(§4) Click Master-mix (8 µL, 100 µM TAMRA-azide, Baseclick, Neuried, Germany, Cat# BCFA-008-10, 500 µM BTTAA ligand, Jena Bioscience, Jena, Germany, CLK -067, 1 mM CuSO4) was added and the CuAAC reaction started by addition of 2 µL of aq. sodium ascorbate (c end= 2 mM). […] Fluorescence scanning was performed using a Las-3000 fluorescence darkbox (Fujifilm, Minato, Japan) with a Fujinon VRF 43LMD Lens, 605DF40 filter and 520 nm EPI excitation wavelength and loading controls were developed with Coomassie stain afterwards. […]

AIFM1 = target: T2, AIFM1 (Homo sapiens, UniProt O95831); assay: Gel-based labelling of recombinant AIFM1 spiked into HEK-293 lysate; format: binding; conditions: excess compound added prior to probe
T2 construct: made in house; host or cells: E. coli Rosetta2
T2 sequence (O95831 102-613): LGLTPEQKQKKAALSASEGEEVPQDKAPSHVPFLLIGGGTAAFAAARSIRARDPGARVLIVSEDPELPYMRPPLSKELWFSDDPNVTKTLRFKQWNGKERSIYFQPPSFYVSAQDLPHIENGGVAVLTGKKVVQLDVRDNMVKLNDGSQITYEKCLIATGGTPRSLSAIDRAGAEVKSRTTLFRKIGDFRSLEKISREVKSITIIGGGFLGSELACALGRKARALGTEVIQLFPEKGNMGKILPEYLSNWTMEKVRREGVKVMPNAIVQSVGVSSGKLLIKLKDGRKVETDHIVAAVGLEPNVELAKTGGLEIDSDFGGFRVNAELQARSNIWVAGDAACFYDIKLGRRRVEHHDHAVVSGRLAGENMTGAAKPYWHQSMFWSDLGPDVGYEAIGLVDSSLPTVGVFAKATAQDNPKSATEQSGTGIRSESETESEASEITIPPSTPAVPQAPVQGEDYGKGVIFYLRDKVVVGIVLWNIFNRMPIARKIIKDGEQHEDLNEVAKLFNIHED
Method: as §1, §2, §3, §4

NUDT1 = NUDT1 (Homo sapiens, UniProt P36639); assay: Gel-based AfBPP labelling of recombinant NUDT1 spiked into human lysate; format: binding; parameters: Full length NUDT1 gene synthesis; N-terminal His tag with thrombin site from pET28a(+) (NdeI/XhoI) (N, cleaved yes); made in house; host or cells: E. coli BL21 (DE3); conditions: parent compound added before probe

Structure (SMILES): O=C(O)c1cn(C2CC2)c2cc(N3CCNCC3)c(F)cc2c1=O [Ciprofloxacin]
- regulation of ETC complex I and IV subunits (HEK‐293 cells): pronounced and time‐dependent down‐regulation of both complexes
- PTGR2 activity (PTGR2): not significantly affected
- competition of Cipro P1 labelling of recombinant AIFM1 (AIFM1): strong reduction of signal intensity
- competition of Cipro P2 / Levo P2 labeling of recombinant NUDT1 (NUDT1): competed
